Our source for the inhibition and IC50 values is US20150209327A1, “METHODS FOR THE TREATMENT OF OBESITY USING APREMILAST” (Celgene Corporation, priority 2014, published 2015).

As usually defined, the inhibition is the relative decrease from the control value, in per cent. As a reminder, the IC50 is the point on the concentration scale where inhibition reaches its midpoint. A higher IC50 goes with a need for much substance.

Test [1] addresses T1, PDE6 (Bos taurus, UniProt P11541+P23439).
T1 sequence (P11541 1-859): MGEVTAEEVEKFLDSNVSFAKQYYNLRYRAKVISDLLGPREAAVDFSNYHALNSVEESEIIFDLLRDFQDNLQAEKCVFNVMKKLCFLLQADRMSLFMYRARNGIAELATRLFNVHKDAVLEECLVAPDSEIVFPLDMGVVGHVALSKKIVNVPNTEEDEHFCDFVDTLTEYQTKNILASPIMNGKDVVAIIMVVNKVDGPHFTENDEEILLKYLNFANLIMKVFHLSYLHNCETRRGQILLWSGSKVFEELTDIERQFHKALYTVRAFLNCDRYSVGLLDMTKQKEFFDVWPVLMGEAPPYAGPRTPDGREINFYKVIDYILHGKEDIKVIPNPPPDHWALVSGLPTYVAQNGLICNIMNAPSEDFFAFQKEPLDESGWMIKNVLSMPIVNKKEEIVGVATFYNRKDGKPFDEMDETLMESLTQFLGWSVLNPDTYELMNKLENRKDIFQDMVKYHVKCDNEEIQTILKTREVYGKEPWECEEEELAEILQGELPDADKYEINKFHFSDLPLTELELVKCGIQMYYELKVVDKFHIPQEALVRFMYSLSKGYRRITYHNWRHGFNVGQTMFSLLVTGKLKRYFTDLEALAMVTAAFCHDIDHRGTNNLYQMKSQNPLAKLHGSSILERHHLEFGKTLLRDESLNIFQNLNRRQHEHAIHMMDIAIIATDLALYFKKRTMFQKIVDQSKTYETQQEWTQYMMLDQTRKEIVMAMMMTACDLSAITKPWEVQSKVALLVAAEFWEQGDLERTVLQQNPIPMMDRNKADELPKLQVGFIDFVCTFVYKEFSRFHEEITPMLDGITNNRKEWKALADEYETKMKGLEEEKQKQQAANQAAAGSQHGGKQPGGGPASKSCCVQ
T1 sequence (P23439 1-853): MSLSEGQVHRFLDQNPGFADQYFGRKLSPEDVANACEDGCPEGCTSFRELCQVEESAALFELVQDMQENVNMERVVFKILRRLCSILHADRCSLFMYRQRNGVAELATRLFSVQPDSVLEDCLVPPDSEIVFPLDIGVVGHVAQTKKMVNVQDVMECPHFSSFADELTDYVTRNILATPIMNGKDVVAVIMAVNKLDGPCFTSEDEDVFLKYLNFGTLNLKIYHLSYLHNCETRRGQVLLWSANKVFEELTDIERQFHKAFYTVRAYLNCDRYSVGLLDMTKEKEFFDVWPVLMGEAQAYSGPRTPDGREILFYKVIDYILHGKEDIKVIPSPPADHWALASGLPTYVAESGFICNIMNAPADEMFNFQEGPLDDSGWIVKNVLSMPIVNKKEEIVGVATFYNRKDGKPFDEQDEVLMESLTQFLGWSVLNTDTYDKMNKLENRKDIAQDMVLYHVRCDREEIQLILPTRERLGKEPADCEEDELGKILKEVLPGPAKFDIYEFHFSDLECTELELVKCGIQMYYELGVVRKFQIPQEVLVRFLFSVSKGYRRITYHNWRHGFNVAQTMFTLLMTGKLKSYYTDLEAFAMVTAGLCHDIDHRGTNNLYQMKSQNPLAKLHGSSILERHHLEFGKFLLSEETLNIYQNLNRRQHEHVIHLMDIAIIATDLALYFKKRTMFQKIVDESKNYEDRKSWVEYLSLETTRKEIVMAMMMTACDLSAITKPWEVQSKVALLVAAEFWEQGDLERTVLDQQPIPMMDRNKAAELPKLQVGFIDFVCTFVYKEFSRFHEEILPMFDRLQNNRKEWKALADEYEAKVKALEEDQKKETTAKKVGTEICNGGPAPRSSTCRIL
Kind of test: PDE6 enzyme assay. The test is classed as biochemical. As to the method: (§1) PDE1, 2, 3 and 5 enzyme assays were prepared as described by Hidaka and Asano. Biochem. Biophys. Acta., 1976, 429:485; see also Nicholsen et al., Trends Pharmaco. Sci., 1991, 12:19. The PDE6 enzyme assay was prepared according to Baehr et al., J. Biol. Chem., 1979, 254:11669 and Gillespie et al., Mol. Pharm., 1989, 36: 773. The PDE7 enzyme assay was prepared according to Bloom and Beavo. Proc. Natl. Acad. Sci. USA, 1996, 93:14188-92.

The target in test [2] is PDE7 (Homo sapiens, UniProt Q13946). Kind of test: PDE7 enzyme assay. The test is classed as biochemical. As to the method:
as §1

Sequence of PDE7 (Q13946 whole entry): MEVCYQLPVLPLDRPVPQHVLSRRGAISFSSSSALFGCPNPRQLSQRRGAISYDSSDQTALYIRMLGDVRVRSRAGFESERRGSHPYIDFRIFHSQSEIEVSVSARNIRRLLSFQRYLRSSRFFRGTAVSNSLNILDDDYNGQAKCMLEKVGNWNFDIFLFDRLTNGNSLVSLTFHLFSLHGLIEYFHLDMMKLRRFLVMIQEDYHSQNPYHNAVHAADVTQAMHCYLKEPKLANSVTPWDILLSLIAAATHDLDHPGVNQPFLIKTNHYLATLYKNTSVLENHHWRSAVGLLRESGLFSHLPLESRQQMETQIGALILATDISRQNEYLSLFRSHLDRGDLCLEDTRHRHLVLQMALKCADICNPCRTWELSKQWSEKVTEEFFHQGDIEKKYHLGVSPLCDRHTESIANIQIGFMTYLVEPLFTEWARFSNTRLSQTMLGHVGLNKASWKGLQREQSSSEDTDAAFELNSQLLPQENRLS

For the compound `CCOc1cc([C@@H](CS(C)(=O)=O)N2C(=O)c3cccc(NC(C)=O)c3C2=O)ccc1OC` [Apremilast, (+)-2-[1-(3-ethoxy-4-methoxyphenyl)-2-methylsulfonylethyl]-4-acetylaminoisoindoline-1,3-dione], in test [1], the inhibition at 10 µM was -6%. The compound further gave an IC50 in test [2] of 20.5 µM.
